Reference: patent US20220251095A1, “TRICYCLIC COMPOUND, PREPARATION METHOD THEREFOR AND USE THEREOF” (SHANGHAI JEMINCARE PHARMACEUTICALS CO., LTD., priority 2019, published 2022)

How the values were obtained:
[1] = Pharmacokinetic experiment in rats, intravenous injection and oral administration; format: in vivo; conditions: male Sprague Dawley rats; for F: intragastric administration 2 mg/kg vs intravenous 1 mg/kg; for AUC(0-inf) / Cmax / half-life / clearance / Vd: rat, plasma; for Vd: read-out: Vz
Description: In this experimental embodiment, in vivo pharmacokinetic evaluation was performed in rats by intravenous injection and oral administration.
Experimental methods and conditions: Male Sprague Dawley rats were given the test compound 1 mg/Kg (intravenous injection, solvent 5% DMSO/10% Solutol/85% Saline) and 2 mg/Kg (intragastric administration, solvent 0.5% MC) by respectively; 5 min, 15 min, 30 min, 1 hr, 2 hr, 4 hr, 6 hr, 8 hr, 24 hr after administration, blood was collected from submandibular vein, 0.20 mL was collected from each sample , and heparin sodium was used for anticoagulation. After collection, the sample was placed on ice, and the plasma was centrifuged to be measured within 1 hour. Plasma drug concentration in plasma was detected by liquid chromatography tandem mass spectrometry (LC/MS/MS) to calculate pharmacokinetic parameters.

[2] = target: T1, coagulation factor XIa protease (FXIa) (Homo sapiens, UniProt P03951); assay: Inhibition of coagulation factor XIa (FXIa), chromogenic substrate, absorbance at 405; format: biochemical; conditions: FXIa 0.05 μg/mL, substrate 2.5 mM, 37° C. 15 minutes
T1 construct: purchased Abcam ab62411
T1 sequence (P03951 388-625 limits assumed): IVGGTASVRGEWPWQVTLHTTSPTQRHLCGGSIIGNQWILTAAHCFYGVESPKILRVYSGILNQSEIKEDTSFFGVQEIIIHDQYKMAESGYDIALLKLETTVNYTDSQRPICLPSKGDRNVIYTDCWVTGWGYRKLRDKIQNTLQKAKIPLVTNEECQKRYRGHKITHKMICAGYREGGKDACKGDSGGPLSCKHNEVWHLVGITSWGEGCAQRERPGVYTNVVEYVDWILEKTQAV
T1 sequence (P03951 19-387 partner limits assumed): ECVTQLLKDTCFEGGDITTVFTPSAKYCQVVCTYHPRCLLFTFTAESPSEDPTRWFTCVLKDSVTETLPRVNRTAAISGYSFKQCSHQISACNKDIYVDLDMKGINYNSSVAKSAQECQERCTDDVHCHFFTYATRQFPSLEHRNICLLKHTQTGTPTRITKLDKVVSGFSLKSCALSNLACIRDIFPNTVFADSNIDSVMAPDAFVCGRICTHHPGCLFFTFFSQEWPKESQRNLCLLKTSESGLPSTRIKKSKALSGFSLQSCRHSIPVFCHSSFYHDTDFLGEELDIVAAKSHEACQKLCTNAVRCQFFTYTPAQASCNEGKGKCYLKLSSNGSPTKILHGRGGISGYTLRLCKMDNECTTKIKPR
Description: Coagulation factor XIa protease (FXIa) decomposed the specific substrate to produce yellow p-nitroaniline (pNA), pNA had strong absorption at 405 nm. The inhibitory activity of the compounds on coagulation factor XIa was determined by assaying the absorbance of the compounds at […].
The coagulation factor XIa protease used in the experiment was purchased from Abcam Company, Item No. ab62411; the coagulation factor XIa-specific substrate was purchased from HYPHEN BioMed, Item No. Biophen cs-21 (66); tris-HCl was purchased from Invitrogen, Item No. 15567-027; NaCl was purchased from ABCONE, Item No. S39168; Twain 20 was purchased from Amersco, Item No. 0777-1L.
(§1) The compounds were dissolved in 100% DMSO, 20 mM, and stored at room temperature in a nitrogen cabinet.
a. 20 mM of the tested compound was diluted to 2 mM using 100% DMSO, and the reference compound was diluted to 0.4 mM; the compound was continuously diluted with a 3-fold gradient at 10 concentration points using a Bravo liquid workstation.
b. The ECHO liquid workstation was used to transfer 10 nL of compound to the corresponding 384-well experimental plate with double replicate wells; the final concentrations of compound reactions were 1000, 333.3, 111.1, 37.0, 12.3, 4.1, 1.37, 0.46, 0.15, and 0.05 nM. The final concentrations of reference compounds were 200, 66.7, 22.2, 7.4, 2.47, 0.82, 0.27, 0.09, 0.03, 0.01 nM.
c. 10 nL DMSO and 10 nL 0.4 mM reference compounds were transferred to high signal control pores and low signal control pores respectively.
d. 0.1 μg/mL FXIa enzyme solution was prepared with buffer solution, and 10 μL enzyme solution was added to 384-well experimental plate, 5 mM substrate solution was prepared using buffer solution, and […] substrate solution was added to a 384-well experimental plate. The final concentration of FXIa was 0.05 μg/mL and the final concentration of the substrate was 2.5 mM.
e. The 384-hole experimental plate was centrifuged and incubated at 37° C. for 15 minutes.
f. The absorbance was measured at 405 nm using EnVision.

human plasma = assay: Anticoagulant effect on human blood in vitro (APTT clotting time, CT2.0); conditions: final concentration of compound corresponding to aPTT of the 2-fold blank control
Description: Activated partial thromboplastin time (APTT) measurement reagent was mixed with plasma and the reaction was carried out continuously resulting in a change in optical density up to the clotting point, and the clotting time (CT) was measured by optical turbidimetry using a semi-automatic coagulation analyzer. The in vitro anticoagulant activity of compounds on human blood was determined by detecting the clotting time of plasma treated with different concentrations of compounds, and the corresponding concentration of compounds prolonging clotting time was calculated.
Human plasma used in the experiment was purchased from HD Biosciences (Shanghai) Co., Ltd.; Activated partial thromboplastin time determination kit was purchased from Taizhou Zhongqin Shidi Biotechnology Co., Ltd., Item No. SS00220005.
as §1
a. The NaCl reagent in the kit was incubated half an hour in advance, and the APTT reagent was balanced to room temperature.
b. The compound was continuously diluted at 14 concentration points using a Bravo liquid workstation with a 2-fold gradient.
c. 0.75 μL of the compound was added to the measuring cup, double-replicate wells; 50 μL of plasma was added and 50 μL of APTT reagent was added, the mixture was mixed well and put into coagulation analyzer for incubation at 37° C. for 3 minutes.
d. APTT assay was started, 50 μL of NaCl was added to start the reaction, and the clotting time was counted.
e. Control clotting time was measured using 100% DMSO instead of the compound, and the final concentration of DMSO was 0.5%.
Data were curve-fitted using Graphpad Prism to calculate CT2.0, the final concentration of compound corresponding to aPTT of the 2-fold blank control was calculated.

[3] = po, intragastric administration 2 mg/kg
[4] = intravenous administration 1 mg/kg

| SMILES | F [1] [%] | AUC(0-inf) [1, 3] [ng·h/mL] | Cmax [1, 3] [ng/mL] | half-life [1, 3] [h] | AUC(0-inf) [1, 4] [ng·h/mL] | clearance [1, 4] [mL/min/kg] | half-life [1, 4] [h] | Vd [1, 4] [L/kg] | IC50 [2] [nM] | CT2.0 (human plasma) [µM] |
| --- | --- | --- | --- | --- | --- | --- | --- | --- | --- | --- |
| Nc1ccc(-c2nc(F)c([C@@H]3[C@H]4C[C@H]4c4cc(-c5cc(Cl)ccc5-n5cnnn5)cc(=O)n43)[nH]2)c(F)n1 [Embodiment 36] | 25.32 | 3310 | 709 | 1.63 | 6530 | 2.66 | 1.65 | 0.349 | 3.34 | 0.42 |
| Nc1n[nH]c2cc(-c3[nH]c([C@@H]4[C@H]5C[C@H]5c5cc(-c6cc(Cl)ccc6-n6cc(C(F)F)nn6)cc(=O)n54)nc3F)ccc12 [Embodiment 83] |  |  |  |  |  |  |  |  | 0.83 | 0.82 |
| Nc1n[nH]c2c(F)c(-c3cnc([C@@H]4[C@H]5C[C@H]5c5cc(-c6cc(Cl)ccc6-n6cnnn6)cc(=O)n54)[nH]3)ccc12 [Embodiment 86] |  |  |  |  |  |  |  |  | 0.31 | 0.20 |
| O=C1CCc2cc(-c3cnc([C@@H]4[C@H]5C[C@H]5c5nc(-c6cc(Cl)ccc6-n6cc(Cl)nn6)cc(=O)n54)[nH]3)ccc2N1 [Embodiment 89] |  |  |  |  |  |  |  |  | 12.5 | 1.29 |
| O=C1CCc2c(ccc(-c3cnc([C@@H]4[C@H]5C[C@H]5c5nc(-c6cc(Cl)ccc6-n6cc(Cl)nn6)cc(=O)n54)[nH]3)c2F)N1 [Embodiment 90] | 28.4 | 17600 | 1830 | 3.16 | 26900 | 0.63 | 3.41 | 0.18 | 6.33 | 0.63 |
| O=C1CCc2c(ccc(-c3cnc([C@@H]4[C@H]5C[C@H]5c5nc(-c6cc(Cl)ccc6-n6cc(Cl)nn6)cc(=O)n54)[nH]3)c2Cl)N1 [Embodiment 91] |  |  |  |  |  |  |  |  | 3.93 | 2.27 |
| O=C1CCc2cc(-c3[nH]c([C@@H]4[C@H]5C[C@H]5c5nc(-c6cc(Cl)ccc6-n6cc(Cl)nn6)cc(=O)n54)nc3F)ccc2N1 [Embodiment 92] |  |  |  |  |  |  |  |  | 4.24 | 0.83 |
